Like-named read-outs stand apart in the source and are kept apart here.
Assays:
[1] = tested on: ZIKV human strain PAN2015 (2015/Panama); experiment: microbe, parasite or virus in culture; assay type: cell-based, Zika virus (ZIKV); conditions: Vero E6 cells
Source text: (§1) Vero E6 and LLC-MK2 cells were maintained in Dulbecco's Modified Eagle Medium (DMEM) supplemented with 8% fetal bovine serum (FBS) and penicillin and streptomycin (P/S). C6/36 cells were maintained in Eagle's Minimal Essential Medium (EMEM) supplemented with 5% FBS and P/S. ZIKV strains, including human strains PAN2016 (2016/Panama), R116265 (2016/Mexico), PAN2015 (2015/Panama), FLR (2015/Colombia), R103451 (2015/Honduras), PRVABC59 (2015/Puerto Rico), PLCal_ZV (2013/Thailand), and IbH 30656 (1968/Nigeria), mosquito strain MEX 2-81 (2016/Mexico), and rhesus macaque strain MR 766 (1947/Uganda), were used in the studies. These ZIKV strains were cultured in Vero E6 cells, and viral titers were detected by a standard plaque-forming assay. DENV human strains, including type 1: DENV-1-V1792 (2007/Vietnam), type 2: DENV-2-V594 (2006/Puerto Rico), type 3: DENV-3-V1043 (2006/Puerto Rico), and type 4: DENV-4-PR 06-65-740 (2006/Puerto Rico), were cultured in C6/36 cells, and the viral titers were determined by plaque-forming assay as described above.
(§2) A plaque reduction inhibition assay was carried out to measure the inhibitory activity of Z-medicaments against infections of ZIKV and DENV. […] The compound-virus mixtures were then transferred to Vero E6 cells (10^5/well) and incubated at 37° C. for 1 h. […] The cells were washed thoroughly with PBS, and overlaid with DMEM containing 1% carboxymethyl cellulose and 2% FBS, followed by in vitro culture at 37° C. for 4-5 days and then staining with 0.5% crystal violet.
(§3) After removal of the unbound compounds by centrifugation after addition of 3% PEG-6000, ZIKV was incubated with Vero E6 cells at 37° C. for 1 h. The cells were then washed with PBS, overlaid with DMEM containing 1% carboxymethyl cellulose and 2% FBS, and cultured at 37° C. for 4-5 days, followed by staining with 0.5% crystal violet.

ZIKV NS2B-NS3 protease = target: T1, ZIKV NS2B-NS3 protease (Zika virus, UniProt Q32ZE1); experiment: Fluorescence-based inhibition of NS2B-NS3 protease activity; assay type: biochemical; conditions: substrate Bz-Nle-Lys-Lys-Arg-AMC 4 μM, protein 1 μg/ml
T1 construct: 49-97) and NS2 protein (residues 1-185) through a covalent; made in house; host or cells: E. coli
Procedure: Binding of compounds (NPs) to ZIKV full-length E (FIG. 3A), EDIII (FIG. 3B), and NS2B-NS3 (FIG. 3C) proteins, was detected by ELISA. The percent binding was reported in the presence or absence of serially diluted NPs using the formula (1-[E/EDIII-NP]/[E/EDIII])×100 (for E/EDIII binding) or (1-[NS2B-NS3-NP]/[NS2B-NS3])×100 (for NSEB-NS3 binding). […] The concentrations of ZIKV EDIII and mAbs were 1.5 and 0.5 μg/ml, respectively. […] The concentrations of substrate (Bz-Nle-Lys-Lys-Arg-AMC) and ZIKV NS2B-NS3 protein were 4 μM and 1 μg/ml, respectively. The percent inhibition of protease activity was calculated in the presence or absence of serially diluted compounds using the formula (1-[NS2B-NS3-substrate-NP]/[NS2B-NS3-substrate])×100. The IC50 values were calculated based on the percent inhibition. The data are expressed as mean±s.e.m. (n=4).

[2] = tested on: ZIKV human strain IbH 30656 (1968/Nigeria); experiment: Plaque reduction inhibition assay in Vero E6 cells, ZIKV IbH 30656; assay type: cell-based, Zika virus (ZIKV)
Procedure: A plaque reduction inhibition assay was carried out to measure the inhibitory activity of Z-medicaments against infections of ZIKV and DENV. […] The compound-virus mixtures were then transferred to Vero E6 cells (10^5/well) and incubated at 37° C. for 1 h.

[3] = tested on: ZIKV mosquito strain MEX 2-81 (2016/Mexico); experiment: Plaque reduction inhibition assay in Vero E6 cells, ZIKV MEX 2-81; assay type: cell-based, Zika virus (ZIKV)
Source text: as §1, §2, §3

[4] = tested on: ZIKV human strain R116265 (2016/Mexico); experiment: Plaque reduction inhibition assay in Vero E6 cells, ZIKV R116265; assay type: cell-based, Zika virus (ZIKV); conditions: Table 7, gossypol derivatives, read-out: ZIKV strains IC50, R116265
Source text: as §1, §2, §3

Cc1cc2c(C(C)C)c(O)c(O)c(/C=N/n3c(=O)[nH][nH]c3=O)c2c(O)c1-c1c(C)cc2c(C(C)C)c(O)c(O)c(/C=N/n3c(=O)[nH][nH]c3=O)c2c1O [ST087010]
IC50 ([1]; Table 7, gossypol derivatives, read-out: ZIKV strains IC50, PAN2015): 3500 ± 60 nM | IC50 (ZIKV NS2B-NS3 protease; read-out: IC50, inhibition of ZIKV NS2B-NS3 protease cleavage): 4840 nM | IC50 ([2]; Table 7, gossypol derivatives, read-out: ZIKV strains IC50, IbH 30656): 2940 ± 80 nM | IC50 ([3]; Vero E6 cells, Table 7, gossypol derivatives, read-out: ZIKV strains IC50, MEX 2-81): 2920 ± 250 nM | IC50 [4]: 2910 ± 70 nM

COc1cc(/C=C/C(=O)CC(=O)/C=C/c2ccc(O)c(OC)c2)ccc1O [Curcumin, curcumin]
Inhibition of NS2B-NS3 protease activity (in words) (ZIKV NS2B-NS3 protease): low inhibitory activity

Cc1cc2c(C(C)C)c(O)c(O)c(C=O)c2c(O)c1-c1c(C)cc2c(C(C)C)c(O)c(O)c(C=O)c2c1O [Gossypol, gossypol]
IC50 ([3]; Zika virus, Vero C1008, read-out: IC50 against ZIKV strain MEX 2-81): 2790 ± 10 nM | IC50 ([3]; Zika virus, Vero C1008, read-out: ZIKV strains IC50, MEX 2-81): 2930 ± 10 nM

C[C@@H]1CC[C@@]2(OC1)O[C@H]1[C@@H](O)[C@H]3[C@@H]4CC[C@H]5C[C@@H](O[C@@H]6O[C@H](CO)[C@H](O[C@@H]7O[C@H](CO)[C@@H](O)[C@H](O[C@@H]8OC[C@@H](O)[C@H](O)[C@H]8O)[C@H]7O[C@@H]7O[C@H](CO)[C@H](O)[C@H](O[C@@H]8O[C@H](CO)[C@@H](O)[C@H](O)[C@H]8O)[C@H]7O)[C@H](O)[C@H]6O)[C@H](O)C[C@]5(C)[C@H]4CC[C@]3(C)[C@H]1[C@@H]2C [Digitonin, digitonin]
IC50 ([1]; Zika virus, Vero C1008, Table 1, read-out: IC50 against ZIKV strain PAN2015): 5000 ± 10 nM | IC50 ([2]; Zika virus, Vero C1008, Table 1, read-out: IC50 against ZIKV strain IbH 30656): 5300 ± 130 nM
